Test results from patent publication US20230130621A1, “APPLICATION OF AGENT IN PREPARATION OF MEDICINE FOR TREATING/INHIBITING PSORIASIS” (priority 2021, published 2023).

How the values were obtained:
[1] = system: endothelial cells; test: dsDNA in exosomes released by endothelial cells stimulated by cytokines; format: cell-based; settings: cytokine stimulation; FIG. 17, 18
Excerpt: The dsDNA in exosomes released by endothelial cells stimulated by cytokines TNFα and IL17 was detected.

[2] = system: mouse; test: IL-1b injection into ears of the mouse; format: in vivo; settings: injected into ears of the mouse; FIG. 26, 27
Excerpt: dsDNA-AIM2 finally released the cytokine IL-1b to act on the body.

Row | Substance | dsDNA content in exosomes released by endothelial cells [1] | psoriasis-like response in a mouse (skin phenotype, spleen, pathology) [2]
1 | IL17: cytokine IL17, clinically relevant cytokine for psoriasis | significantly stimulated the dsDNA content in exosomes released by endothelial cells | –
2 | IL-1b: cytokine interleukin 1b | – | cause psoriasis-like skin phenotype, spleen enlargement and pathological changes
3 | TNFα | significantly stimulated the dsDNA content in exosomes released by endothelial cells | –
